From patent US20090220435A1, “TIGHT JUNCTION MODULATING PEPTIDE COMPONENTS FOR ENHANCING MUCOSAL DELIVERY OF THERAPEUTIC AGENTS” (priority 2005, published 2009)

How the values were obtained:
[1] = test system: EpiAirway™ human-derived tracheal/bronchial epithelial cells; assay: Transepithelial electrical resistance (TER) across EpiAirway epithelial cell layer; type: cell-based
[2] = test system: EpiAirway™ human-derived tracheal/bronchial epithelial cells; assay: FITC-dextran / sample permeation across epithelial cell monolayer; type: cell-based
Experimental: A FITC labeled dextran with a molecular weight 3000 (FD3) was used to assess the efficacy of individual TJMP on epithelial cell monolayer permeation. The tissue insert plates were transferred to a 96-well receiver plate containing 200 μl of DPBS++ as basal media. The apical surface of each tissue culture insert was incubated with a 20 μl sample of a single test formulation (refer to Table 24 of Example 25 for details of test formulations) for one hour at 37° C. in the dark on a shaker (˜100 rpm). Following the 1-hour incubation period, underlying basal media samples were taken from each tissue culture insert and temporarily stored in the dark at room temperature until FD3 levels were quantified by fluorescence spectroscopy. For FD3 measurements, a 150 μl of basal media sample was transferred to a black, clear bottom 96-well plate. Fluorescence emission at 528/20 following excitation at 485/20 were measured using a FL×800 fluorescence plate reader from Biotek Instruments.
Each tissue insert will be placed in an individual well containing 1 ml of MatTek basal media. On the apical surface of the inserts, 25 μl of test formulation will be applied according to study design, and the samples will be placed on a shaker (˜100 rpm) for 1.5 h at 37° C. FITC-labeled dextran solution is added to inserts apically and a fluorescence measurement is made from the basolateral media after the incubation period. The concentration of FITC-dextran is expressed as a percent of the starting material applied to the cells. A FITC labeled dextran with a molecular weight 4000 (MW4000) was used to assess cargo size limitations on individual TJMP permeation. Of note, various size FITC-labeled dextrans are available to perform size limitation studies.
Fluorescein isothiocyanate (FITC) labeled Dextrin (MW 3,000) was added to the treatment mixture at 0.1-1 mg/ml. The treatment mixture was added to the side of the apical wall, and the plates were incubated at 37° C. in an orbital shaker (New Brunswick Scientific, Edison, N.J.) for the designated time at 100 rpm. At the end of incubation, triplicates of 200 ul of the basal medium were transferred to a dark-wall fluorescent reading plate. Fluorescent intensity at wavelength 470 nm was measured by a microplate fluorescence reader FLx800 (BIO-TEK INSTRUMENTS, INC, Winooski, Vt.). Serial dilutions of standard were used to obtain a standard curve and calculate the concentration. Permeability was measured in two ways, as the ratio of donor mass (the apical chamber) or as the ratio of acceptor mass (the basal chamber), expressed in percentage.

[3] = test system: EpiAirway™ human-derived tracheal/bronchial epithelial cells; assay: Cytotoxicity (LDH assay); type: cell-based
Experimental: The amount of cell death was assayed by measuring the loss of lactate dehydrogenase (LDH) from the cells using a CytoTox 96 Cytoxicity Assay Kit (Promega Corp., Madison, Wis.). Fifty microliters of sample was loaded into a 96-well assay plates. Fresh, cell-free culture medium was used as a blank. 50 μl of substrate solution was added to each well and the plates incubated for 30 minutes at room temperature in the dark. Following incubation, 50 μl of stop solution was added to each well and the plates read on an optical density plate reader at 490 nm.
The amount of cell death will be assayed by measuring the loss of lactate dehydrogenase (LDH) from the cells using a CytoTox 96 Cytotoxicity Assay Kit (Promega Corp., Madison, Wis.). Fifty microliters of sample will be loaded into a 96-well assay plates. Fresh, cell-free culture medium will be used as a blank. Fifty microliters of substrate solution will be added to each well and the plates incubated for 30 minutes at room temperature in the dark. Following incubation, 50 μl of stop solution will be added to each well and the plates read on an optical density plate reader at 490 nm. The measurement of LDH release into the basolateral media indicates relative cytotoxicity of the samples. One hundred percent lysis of control inserts with 0.3% Octylphenolpoly(ethyleneglycolether)×(TritonX-100) allows LDH values to be expressed as percentage of total lysis.
In some embodiments, The amount of cell death was assayed by measuring the release of lactate dehydrogenase (LDH) from the cells into the apical medium using a CytoTox 96 Cytotoxicity Assay Kit (Promega Corp., Madison, Wis.). One percent Octylphenolpoly (ethyleneglycolether)×(Triton X-100™) diluted in phosphate buffered saline (PBS) causes 100% lysis in cultured cells and served herein as a positive control for the LDH assay. Following the one hour incubation period with a test formulation (refer to Table 24 of Example 25 for details of test formulations), the total liquid volume of each insert was brought to a final volume of 200 μl with culture medium. The apical medium was then mixed by pipetting four times with a multichannel pipette set to a 100 μl volume. After mixing, a 100 μl sample from the apical side of each insert was transferred to a new 96-well plate. The apical media samples were sealed with a plate sealer and stored at room temperature for same day analysis or stored overnight at 4° C. for analysis the next day. To measure LDH levels, 5 μl of the 100 μl apical media sample was diluted in 45 μl DPBS in a new 96-well plate. Fresh, cell-free culture medium will be used as a blank. Fifty microliters of substrate solution was added to each well and incubated for 30 minutes at room temperature away from direct light. Following the 30 minute incubation, 50 μl of stop solution was added to each well. Optical density (OD) was measured at 490 nm with a uQuant absorbance plate reader from Biotek Instruments. The measurement of LDH release into the apical media indicates relative cytotoxicity of the samples. Percent cytotoxicity for each test formulation was calculated by subtracting the measured absorbance of the PBS control (basal level of LDH release) from the measured absorbance of the individual test formulation and then dividing that value by the measured absorbance for the 1% Triton X-100™ positive control, multiplied by 100.
An LDH assay was used to assess the cytotoxicity of the treatments. The LDH level was determined by CytoTox96 Non-Radioactive Cytotoxic Assay (Promega, Madison, Wis.) following the manufacturer's protocol. For basal-lateral LDH levels, triplicates of 50 ul of the basal medium were used to determine the LDH level. For apical LDH level, 150 ul of the diluted apical sample was removed by adding 150 ul of Epi-CM to the apical chamber, the medium was mixed by pipeting up and down, and 150 ul medium was removed and diluted 2× (for a final 8-fold dilution) for assay in triplicates of 50 ul.

[4] = test system: in vitro epithelial tissue model (EpiAirway™); assay: Drug permeation (Papp) in the in vitro epithelial tissue model
Source text: A. A “kit” of 24 EpiAirway™ units can routinely be employed for evaluating five different formulations, each of which is applied to quadruplicate wells. Each well is employed for determination of permeation kinetics (4 time points), transepithelial electrical resistance (TER). An additional set of wells is employed as controls, which are sham treated during determination of permeation kinetics, but are otherwise handled identically to the test sample-containing units for determinations of transepithelial resistance and viability.
B. In all experiments, the mucosal delivery formulation to be studied is applied to the apical surface of each unit in a volume of 100 μL, which is sufficient to cover the entire apical surface. An appropriate volume of the test formulation at the concentration applied to the apical surface (no more than 100 μL is generally needed) is set aside for subsequent determination of concentration of the active material by ELISA or other designated assay.
D. In order to minimize potential sources of error and avoid any formation of concentration gradients, the units are transferred from one 0.9 mL-containing well to another at each time point in the study. These transfers are made at the following time points, based on a zero time at which the 100 μL volume of test material was applied to the apical surface: 15 minutes, 30 minutes, 60 minutes, and 120 minutes.
F. At the completion of each time point, the medium is removed from the well from which each unit was transferred, and aliquotted into two tubes (one tube receives 700 μL and the other 200 μL) for determination of the concentration of permeated test material and, in the event that the test material is cytotoxic, for release of the cytosolic enzyme, lactate dehydrogenase, from the epithelium. These samples are kept in the refrigerator if the assays are to be conducted within 24 hours, or the samples are subaliquotted and kept frozen at −80° C. until thawed once for assays. Repeated freeze-thaw cycles are to be avoided.
EIA kit (p/n S-1178(EIAH6101) was purchased from Peninsula Laboratories Inc. (Division of BACHEM, San Carlos, Calif., 800-922-1516). 17×120 mm polypropylene conical tubes (p/n 352097, Falcon, Franklin Lakes, N.J.) were used for all sample preparations. Eight standards were used for PTH quantitation. The rest of the assay procedure was the same as the kit inserts.
The instant study was designed to evaluate the effect of PN159 itself or in combination with additional permeation enhancers on PTH permeation. The PN159 concentrations evaluated are 25, 50, and 100 μM. The additional permeation enhancers are 45 mg/ml M-β-CD, 1 mg/ml DDPC, and 1 mg/ml EDTA. Sorbitol was used as a tonicifier (146-190 mM) to adjust the osmolarity of formulations to 220 mOsm/kg. The formulation pH was fixed at 4.5. PTH was chosen as a model peptide in this example. 2 mg/ml PTH was combined with PN159 with or without additional permeation enhancers. The combination was tested using an in vitro epithelial tissue model to monitor PTH permeation, transepithelial electrical resistance (TER), and the cytotoxicity of the formulation by LDH assay.
The concentrations of MC-4RA in the basolateral media was analyzed by the RP-HPLC using a C18 RP chromatography with a flow rate of 1 mL/minute and a column temperature of 25° C. • Solvent A: 0.1% TFA in water; Solvent B: 0.1% TFA in ACN • Injection Volume: 50 μL • Detection: 220 nm • RUN TIME: 15 MIN
Galantamine concentration in the formulation and in the basolateral media (permeation samples) was determined using an isocratic LC (Waters Alliance) method with UV detection. • Column: Waters Symmetry Shield, C18, 5 um, 25×0.46 cm • Mobile phase: 5% ACN in 50 mM ammonium formate, pH 3.0 • Flow rate: 1 ml/min • Column temperature: 30° C. • Calibration curve: 0-400 μg/ml Galantamine HBr • Detection: UV at 285 nm

[5] = 15 minute treatment at the peptide's optimal concentration
[6] = 60 minute treatment at the peptide's optimal concentration
[7] = 1000 μM, additional assay (in parenthesis)

Compound: Maleimide-GLGSLLKKAGKLKLKQPKSKRKV-amide [PN283]
- TER reduction ([1]; 100 μM peptide): 39%
- TER reduction ([1]; 500 μM peptide): 86%
- TER reduction ([1]; 1000 μM peptide): 92%
- percent permeation ([2]; 100 μM peptide): 0.7%
- percent permeation ([2]; 500 μM peptide): 3.9%
- percent permeation ([2]; 1000 μM peptide): 5.2%
- % Perm 15 [2, 5]: 1.06%
- % Perm 60 [2, 6]: 4.99%
- permeation of FITC-dextran MW4000 ([2]; 60 minutes of incubation, peptide at optimal concentration): approximately 5%
- Optimal Concentration ([2]; greatest TER reduction with highest permeability and no significant cytotoxicity): 1000 µM
- LDH15 [3, 5]: 0.0007
- LDH60 [3, 6]: 0.032

Compound: CNGRCGGKKKLKLLLKLL [PN679]
- % T0 TER ([1]; 25 μM, 1 h, pH 7): 70%
- % T0 TER ([1]; 100 μM, 1 h, pH 7): 7%
- % T0 TER ([1]; 250 μM, 1 h, pH 7): 2%
- % T0 TER ([1]; 500 μM, 1 h, pH 7): −2%
- % T0 TER ([1]; 1000 μM, 1 h, pH 7): −2% (−2%)
- % T0 TER [1, 7]: −2% (−2%)
- % FD3 Permeation ([2]; 25 μM, 1 h, FITC dextran MW 3000): 0%
- % FD3 Permeation ([2]; 100 μM, 1 h, FITC dextran MW 3000): 7%
- % FD3 Permeation ([2]; 250 μM, 1 h, FITC dextran MW 3000): 8%
- % FD3 Permeation ([2]; 500 μM, 1 h, FITC dextran MW 3000): 10%
- % FD3 Permeation ([2]; 1000 μM, 1 h, FITC dextran MW 3000): 10% (10%)
- % FD3 Permeation [2, 7]: 10% (10%)
- optimal dose ([2]; based on TER reduction, sample permeation and LDH release): 100 µM

Compound: CC(C)C[C@H](NC(=O)[C@H](CCCCN)NC(=O)CNC(=O)[C@H](CC(C)C)NC(=O)[C@@H](NC(=O)[C@@H]1CSSC[C@H](N)C(=O)N[C@@H](CO)C(=O)N[C@@H](CC(N)=O)C(=O)N[C@@H](CC(C)C)C(=O)N[C@@H](CO)C(=O)N[C@@H]([C@@H](C)O)C(=O)N1)C(C)C)C(=O)N[C@@H](CO)C(=O)N[C@@H](CCC(N)=O)C(=O)N[C@@H](CCC(=O)O)C(=O)N[C@@H](CC(C)C)C(=O)N[C@@H](Cc1c[nH]cn1)C(=O)N[C@@H](CCCCN)C(=O)N[C@@H](CC(C)C)C(=O)N[C@@H](CCC(N)=O)C(=O)N[C@H](C(=O)N[C@@H](Cc1ccc(O)cc1)C(=O)N1CCC[C@H]1C(=O)N[C@@H](CCCNC(=N)N)C(=O)N[C@H](C(=O)N[C@@H](CC(N)=O)C(=O)N[C@H](C(=O)NCC(=O)N[C@@H](CO)C(=O)NCC(=O)N[C@H](C(=O)N1CCC[C@H]1C(N)=O)[C@@H](C)O)[C@@H](C)O)[C@@H](C)O)[C@@H](C)O [Calcitonin, salmon calcitonin]
- fold increase in Papp in the presence of PN159 [4]: 23-47 fold
- Papp ([4]; [PN159] 0 μM, galantamine 40 mg/mL pH 5.0, calcitonin 1 mg/mL pH 3.5, PTH1-34 1 mg/mL pH 4.5, PYY3-36 1 mg/mL pH 5.0): 0.097 ×10⁻⁶ cm/s
- Papp ([4]; [PN159] 0 μM, galantamine 40 mg/mL pH 5.0, calcitonin 1 mg/mL pH 3.5, PTH1-34 1 mg/mL pH 4.5, PYY3-36 1 mg/mL pH 5.0, listed as calcitonin): about 1×10^−7 cm/s
- Papp ([4]; [PN159] 25 μM, galantamine 40 mg/mL pH 5.0, calcitonin 1 mg/mL pH 3.5, PTH1-34 1 mg/mL pH 4.5, PYY3-36 1 mg/mL pH 7.0): 2.2 ×10⁻⁶ cm/s
- Papp ([4]; [PN159] 50 μM, galantamine 40 mg/mL pH 5.0, calcitonin 1 mg/mL pH 3.5, PTH1-34 1 mg/mL pH 4.5): 3.3 ×10⁻⁶ cm/s
